In patent publication US8628771B2, “CA IX-specific inhibitors” (Institute of Virology Slovak Academy of Sciences, priority 2002, dated 2014):
Values joined by “and” are separate entries in the source; they are usually repeats but may differ in a detail not shown here. Equal entries are not always repeated. Where two headings read alike, the source gives them in different places.

Key:
bCA IV = target: T1, bCA IV (Bos taurus, UniProt Q95323); assay: CA esterase activity assay, isozyme bCA IV; type: biochemical, bovine
T1 construct: CA IV was isolated from bovine lung microsomes as described by Maren et al; from tissue; host or cells: bovine lung microsomes
T1 sequence (Q95323 19-284): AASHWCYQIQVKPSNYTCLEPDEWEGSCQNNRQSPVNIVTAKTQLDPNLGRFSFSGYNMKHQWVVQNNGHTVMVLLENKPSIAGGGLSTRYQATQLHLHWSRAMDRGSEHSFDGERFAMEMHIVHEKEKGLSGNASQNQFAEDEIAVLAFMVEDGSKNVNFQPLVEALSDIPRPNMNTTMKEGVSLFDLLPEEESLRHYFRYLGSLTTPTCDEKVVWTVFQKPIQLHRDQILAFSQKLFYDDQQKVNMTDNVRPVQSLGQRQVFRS

human red cells [1] = details: pH 7.4
[2] = from reference [58]; cited from earlier work
hCA IX = hCA IX (Homo sapiens, UniProt Q16790); assay: CA CO2 hydrase activity assay, tumor-associated isozyme hCA IX
Experimental: An SX.18MV-R Applied Photophysics stopped-flow instrument has been used for assaying the CA CO2 hydration activity assays [44]. […] Inhibitor and enzyme solutions were preincubated together for 10 min at room temperature prior to assay, in order to allow for the formation of the E-I complex.

MDCK-CA IX cells [3] = assay: Extracellular pH (pHe) of sulfonamide-treated MDCK-CA IX cells; type: cell-based, canine; details: 48 hours
Experimental: (§1) To maintain the standard conditions, the cells were always plated in 3 ml of culture medium at a density of 0.8-1×10^6 per 6 cm dish 24 hours before the transfer to hypoxia (2% O2 and 5% CO2 balanced with N2) generated in a Napco 7000 incubator. Parallel normoxic dishes were incubated in air with 5% CO2.
(§2) Compound 6 sulfonamide [4-(2-aminoethyl)-benzenesulfonamide] was from Sigma-Aldrich. […] The sulfonamides were dissolved in PBS with 20% DMSO at 100 mM concentration and diluted in a culture medium to a required final concentration just before their addition to cells. The cells were incubated for 48 hours in hypoxia and normoxia, respectively, the pH of the culture medium was measured and the binding of the FITC-labeled Compound 92 to living cells, washed three times with PBS, was viewed by a Nikon E400 epifluorescence microscope.

MDCK-CA IX cells [4] = assay: Binding of FITC-labeled sulfonamide to MDCK-CA IX cells (fluorescence microscopy); type: cell-based, canine; details: 48 hours
Experimental: as §1, §2

HeLa cells [5] = assay: Extracellular pH (pHe) of sulfonamide-treated HeLa cells; type: cell-based, human; details: hypoxic HeLa cells, 1 mM, 48 hours
Experimental: as §1, §2

SiHa cells [6] = assay: Extracellular pH (pHe) of sulfonamide-treated SiHa cells; type: cell-based, human; details: hypoxic SiHa cells, 1 mM, 48 hours
Experimental: as §1, §2

HeLa cells [7] = assay: Binding of FITC-labeled sulfonamide to HeLa cells (fluorescence microscopy); type: cell-based, human; details: hypoxia versus normoxia, 48 hour incubation
SiHa cells [8] = assay: Binding of FITC-labeled sulfonamide to SiHa cells (fluorescence microscopy); type: cell-based, human; details: hypoxia versus normoxia, 48 hour incubation
human red cells [9] = assay: Membrane permeance assay: ex vivo penetration through red blood cells; details: pH 7.4; for [sulfonamide] in red blood cells, HPLC: HPLC method; for [sulfonamide] in red blood cells, ES: electronic spectroscopic method; for [sulfonamide] in red blood cells, EI: enzymatic method

Nc1ccc(S(=O)(=O)Nc2nnc(S(N)(=O)=O)s2)cc1 [Compound 15, 5-(4-aminobenzenesulfonylamino)-1,3,4-thiadiazole-2-sulfonamide]
Ki (bCA IV): ~5 nM | Ki (bCA IV; read-out: KI bCA IV): 5 nM and 5.1 nM | incubation period to saturation of hCA I and hCA II in erythrocytes with inhibitor (human red cells [1]; human, 2 mM): 60 min | [sulfonamide] in red blood cells, EI (human red cells [1]; human, 30 min, 2 mM): 122 µM | [sulfonamide] in red blood cells, ES (human red cells [1]; human, 30 min, 2 mM): 127 µM | [sulfonamide] in red blood cells, HPLC (human red cells [1]; human, 30 min, 2 mM): 125 µM | [sulfonamide] in red blood cells, EI (human red cells [1]; human, 60 min, 2 mM): 158 µM | [sulfonamide] in red blood cells, ES (human red cells [1]; human, 60 min, 2 mM): 156 µM | [sulfonamide] in red blood cells, HPLC (human red cells [1]; human, 60 min, 2 mM): 154 µM | pKa for the second sulfonamido group [2]: 3.2 | Ki (hCA IX; KI against CA IX): 14 to 50 nM | Ki (hCA IX; read-out: KI against CA IX): 38 nM | Ki (hCA IX; read-out: KI hCA IX): 38 nM

NS(=O)(=O)c1ccc(CNC(=S)Nc2ccc3c(c2)C(=O)OC32c3ccc(O)cc3Oc3cc(O)ccc32)cc1 [Compound 92]
effect on extracellular acidification (MDCK-CA IX cells [3]; hypoxia (2% O2)): able to reduce the extracellular acidification | effect on the normoxic pHe (MDCK-CA IX cells [3]; normoxia): negligible | detection of FITC-labeled compound in cells (MDCK-CA IX cells [4]; hypoxic MDCK-CA IX cells): detected only in hypoxic MDCK-CA IX cells | detection of FITC-labeled compound in cells (MDCK-CA IX cells [4]; normoxic MDCK-CA IX cells and mock-transfected controls): absent | effect on acidosis (pHe) (HeLa cells [5]): partially reduced | effect on acidosis (pHe) (SiHa cells [6]): partially reduced | accumulation of FITC-labeled compound in cells (HeLa cells [7]): accumulated in the hypoxic HeLa and SiHa cells | accumulation of FITC-labeled compound in cells (SiHa cells [8]): accumulated in the hypoxic HeLa and SiHa cells

CC(=O)/N=c1/sc(S(N)(=O)=O)nn1C [MZA, methazolamide]
[sulfonamide] in red blood cells, HPLC (human red cells [9]; t = 30 min, 2 mM sulfonamide in 5 mM Tris buffer): 170 µM | [sulfonamide] in red blood cells, ES (human red cells [9]; t = 30 min, 2 mM sulfonamide): 169 µM | [sulfonamide] in red blood cells, EI (human red cells [9]; t = 30 min, 2 mM sulfonamide): 165 µM | [sulfonamide] in red blood cells, HPLC (human red cells [9]; t = 60 min, 2 mM sulfonamide): 168 µM | [sulfonamide] in red blood cells, ES (human red cells [9]; t = 60 min, 2 mM sulfonamide): 168 µM | [sulfonamide] in red blood cells, EI (human red cells [9]; t = 60 min, 2 mM sulfonamide): 167 µM

Benzolamide [reference compound]
incubation period to saturation of hCA I and hCA II in erythrocytes with inhibitor (human red cells [1]): 60 min | pKa for the second sulfonamido group [2]: 3.2
